Assay results published in patent US20080096870A1, “Methods and Materials for Treating Mental Illness” (priority 2004, published 2008).

Key:
NMDA receptor [1] = assay: NMDA receptor-mediated currents, patch-clamp recording in cultured cerebrocortical neurons; assay type: cell-based, rat; details: for effect on NMDA receptor-mediated current: rat cerebrocortical neurons, TTX-containing, Mg2+-free extracellular solution, holding potential −60 mV, concentration-dependent
GABA receptor = assay: GABA receptor-mediated mIPSCs in cerebrocortical cultured neurons; assay type: cell-based, rat; details: 100 μM; TTX-containing solution, −60 mV
Description: (§1) Neuronal Cultures. Cerebral cortices were dissected from newborn rats and treated with 0.25% trypsin to dissociate the cells. Dissociated cells were resuspended in Dulbecco's Modified Eagle's Medium (DMEM) containing 10% plasma derived horse serum (PDHS) and were plated in poly-L-lysine-coated, 35 mm Nunc plastic tissue culture dishes (3.0×10^6 cells/dish/2ml media). Cultures were maintained in an atmosphere of 5% CO2/95% air.
Electrophysiological recordings: Voltage- and current-clamp recordings of membrane ionic currents and potentials were conducted by using Axopatch 200B and Axoclamp 1B amplifiers (Axon Instruments, Foster City, Calif.). The perforated nystatin- and gramicidin-based patch-clamp recording techniques were used to reduce nonspecific rundown of intracellular processes. Neurons were used for electrophysiological recordings between 12 and 27 days in vitro. […]
(§2) The miniature EPSCs were recorded in TTX-containing (0.3-1 μM), Mg^2+-free (in case of NMDA receptor recording) extracellular solution at Vh=−60 mV. […]
FIG. 5. […] A: Representative GABA receptor-mediated mIPSCs recorded from the same neuron before (control), during (100 μM), and after (wash) application of 3,5-DBr-L-Phe. GABA receptor-mediated mIPSCs were recorded in TTX-containing (0.3 μM) extracellular solution at holding membrane potential of −60 mV. […] Summary data is expressed as mean±SEM of 5 cells.

AMPA-kainate receptors = assay: AMPA-activated currents (IAMPA) in cerebrocortical cultured neurons; assay type: cell-based, rat; details: for effect on activity of postsynaptic AMPA-kainate receptors (AMPA/kainate receptor function): rat cerebrocortical cultured neurons
Description: as §1
(§3) Electrophysiological recordings: Voltage- and current-clamp recordings of membrane ionic currents and potentials were conducted by using Axopatch 200B and Axoclamp 1B amplifiers (Axon Instruments, Foster City, Calif.). The perforated nystatin- and gramicidin-based patch-clamp recording techniques were used to reduce nonspecific rundown of intracellular processes. Neurons were used for electrophysiological recordings between 12 and 27 days in vitro. […] Patch microelectrodes were pulled from 1.5 mm borosilicate glass tubing using a two-stage vertical pipette puller (Narishige, East Meadow, N.Y.). […] For rapid application of agonist-containing solutions to neurons, the SF-77B system (Warner Instrument Corp., Hamden, Conn.) was used.
The miniature EPSCs were recorded in TTX-containing (0.3-1 μM), Mg^2+-free (in case of NMDA receptor recording) extracellular solution at Vh=−60 mV. In order to isolate the NMDA component of GluR-mediated EPSCs, the non-NMDAR (AMPA/kainate) antagonist NBQX (10-20 μM) was added to extracellular solutions. To isolate the non-NMDAR-mediated EPSCs, the experiments were performed in the presence of NMDAR channel blocker, MK-801 (5-10 μM), or in the presence of the NMDAR antagonist, AP-5 (20 μM). Strychnine (1 μM) and picrotoxin (20 μM) were added to the extracellular solution to block glycine and GABA receptors, respectively. […] The basic extracellular solution contained (in mM): NaCl 140, KCl 4, CaCl2 2, MgCl2 1,4-(2-hydroxyethyl)-1-piperazineethanesulfonic acid (HEPES) 10, and glucose 11. The pH of the extracellular solution was adjusted to 7.4 using NaOH. The main solution for filling the patch electrodes contained (in mM): Cs gluconate 135, NaCl 5, KCl 10, MgCl2 1, CaCl2 1, EGTA 11, HEPES 10, Na2ATP 2, Na2GTP […]. The pH of the intracellular solution was adjusted to 7.4 using CsOH. […]
C and D: 3,5-DBr-L-Phe depresses AMPA-activated currents (IAMPA) in rat cerebrocortical cultured neurons. Examples of AMPA-activated currents recorded from the same rat cortical neuron before application of 3,5-DBr-L-Phe, during exposure to different concentrations of BrPhe (noted in figure) and after washout of 3,5-DBr-L-Phe (C). […] Data expressed as mean±S.E.M. for 3-5 cells. *, P<0.01 compared to control.

glutamate release = assay: Evoked paired EPSCs (2nd/1st amplitude ratio) in cerebrocortical cultured neuron; assay type: cell-based, rat; details: 100 μM, Mg2+ 1 mM, Vh −60 mV
Description: as §1, §3
FIG. 4. […] A: Effect of 3,5-DBr-L-Phe on the evoked EPSCs in rat cerebrocortical cultured neuron. Examples of average EPSCs (20 traces average) in control conditions (open circle), in 3,5-DBr-L-Phe (filled circle). Synaptic responses were evoked by applying two sub-threshold electric stimuli (0.4-1 ms, 50-90 V, 250 ms apart) to an extracellular electrode (a patch electrode filled with the extracellular solution) positioned in the vicinity of the presynaptic neuron. Sweeps were recorded at 10 s intervals. After 20 sweeps, 100 μM 3,5-DBr-L-Phe was added. Neuron was held in whole-cell mode at Vh=−60 mV in Mg^2+ (1 mM) containing extracellular solution. […] The amplitude of the 1st and 2nd EPSCs were measured against the baseline; each point represents an average of five subsequent sweeps. Data expressed as mean±S.E.M. for 7 cells. *, P<0.01 compared to control.

AMPA/kainate receptor = assay: AMPA/kainate receptor-mediated mEPSCs, patch-clamp recording in cerebrocortical cultured neurons; assay type: cell-based, rat; details: TTX-containing solution, −60 mV, MK-801 10 μM; concentration-dependent
Description: as §1
Electrophysiological recordings: Voltage- and current-clamp recordings of membrane ionic currents and potentials were conducted by using Axopatch 200B and Axoclamp 1B amplifiers (Axon Instruments, Foster City, Calif.). […]
as §2
The digitized data was analyzed off-line using the Mini-Analysis Program (Synaptosoft, Leonia, N.J.) or the pCLAMP9 (Axon Instruments) (Axon Instruments, Union City, Calif.). […]
FIG. 3. […] A: Representative traces of AMPA-kainate mEPSCs recorded from a cortical neuron under the following conditions: control; in the presence of 3,5-DBr-L-Phe (100 μM); after washout of 3,5-DBr-L-Phe. AMPA/kainate receptor-mediated currents were recorded in TTX-containing (0.3 μM) extracellular solution at holding membrane potential of −60 mV. […] Data is expressed as mean±SEM of 6-7 cells. […]

[2] = tested on: rat cerebrocortical cultured neurons; assay: Elicited action potentials, current-clamp in cerebrocortical cultured neurons; assay type: cell-based; details: 100 μM; inward current pulses 2 ms, 2 nA; 5 of 5 neurons
Description: as §1
Electrophysiological recordings: Voltage- and current-clamp recordings of membrane ionic currents and potentials were conducted by using Axopatch 200B and Axoclamp 1B amplifiers (Axon Instruments, Foster City, Calif.). The perforated nystatin- and gramicidin-based patch-clamp recording techniques were used to reduce nonspecific rundown of intracellular processes. Neurons were used for electrophysiological recordings between 12 and 27 days in vitro. […] Patch microelectrodes were pulled from 1.5 mm borosilicate glass tubing using a two-stage vertical pipette puller (Narishige, East Meadow, N.Y.). […]
C: Examples of action potentials elicited by depolarizing the membrane with inward current pulses of 2 ms duration and 2 nA amplitude in control (before application of 3,5-DBr-L-Phe), in the presence of 3,5-DBr-L-Phe (100 μM) and after wash-out of the drug. Similar responses were recorded from 5 of 5 neurons.

NMDA receptor [3] = details: see ref. 12 and 13; cited from earlier work

## N[C@@H](Cc1cc(Br)cc(Br)c1)C(=O)O [3,5-DBr-L-Phe, 3,5-dibromo-L-phenylalanine]
NMDA receptor [1]; 3,5-DBr-L-Phe 100 μM, AP-5 20 μM, 6 neurons
  sensitivity of 3,5-DBr-L-Phe-activated current to NMDA receptor specific antagonists: is blocked by NMDA receptor specific antagonists
NMDA receptor [1]; 3,5-DBr-L-Phe 100 μM, NMDA 3-1000 μM, glycine 0.1 μM and 10 μM
  dependence of activating effect on NMDA receptor-mediated current on NMDA concentration: depends on concentration of NMDA in extracellular solution
NMDA receptor [1]; 3,5-DBr-L-Phe 100 μM, different concentrations of glycine
  dependence of activating effect on NMDA receptor-mediated current on glycine concentration: does not depend on concentration of glycine
NMDA receptor [1]
  effect on NMDA receptor-mediated current: activates
NMDA receptor [1]; listed as 3,5-dibromo-L-Phe
  effect on NMDA receptor-mediated current: augment
GABA receptor
  effect on GABA receptor-mediated mIPSCs (amplitude and frequency): does not significantly affect
AMPA-kainate receptors; AMPA 3 μM, exposure started 45 s before AMPA, different concentrations
  effect on AMPA-activated currents (IAMPA): depresses
AMPA-kainate receptors
  effect on activity of postsynaptic AMPA-kainate receptors (AMPA/kainate receptor function): causes depression
AMPA-kainate receptors; listed as 3,5-dibromo-L-Phe
  effect on activity of postsynaptic AMPA-kainate receptors (AMPA/kainate receptor function): significantly depresses
Glutamate release
  effect on glutamate release: causes depression
Glutamate release; listed as 3,5-dibromo-L-Phe
  effect on glutamate release: significantly depresses
AMPA/kainate receptor
  effect on AMPA/kainate receptor-mediated mEPSCs (frequency and amplitude): depresses
[2]
  effect on elicited action potentials: does not significantly affect

## N[C@@H](Cc1cccc(Br)c1)C(=O)O [3-bromo-L-Phe, 3-bromo-L-phenylalanine]
NMDA receptor [1]
  effect on NMDA receptor-mediated current: augment
AMPA-kainate receptors
  effect on activity of postsynaptic AMPA-kainate receptors (AMPA/kainate receptor function): significantly depresses
Glutamate release
  effect on glutamate release: significantly depresses

## NC(CCCP(=O)(O)O)C(=O)O (stereo not drawn) [AP-5, reference compound]
NMDA receptor [1]; AP-5 20 μM, 3,5-DBr-L-Phe 100 μM
  effect of antagonist on 3,5-DBr-L-Phe-activated current: depression of 3,5-DBr-L-Phe-activated current

## N[C@@H](Cc1ccccc1)C(=O)O [L-Phe, L-Phenylalanine]
NMDA receptor [3]
  effect on NMDA receptor activity: opposite, depressant, effect
